{"source": "ChEMBL document CHEMBL5154921", "about": "“Discovery and Characterization of the First Nonpeptide Antagonists for the Relaxin-3/RXFP3 System” (J Med Chem, 2022)", "key": {"[1]": {"target": "Muscarinic acetylcholine receptor M3 (Homo sapiens) (UniProt P20309)", "sequence (P20309 whole entry, looked up)": "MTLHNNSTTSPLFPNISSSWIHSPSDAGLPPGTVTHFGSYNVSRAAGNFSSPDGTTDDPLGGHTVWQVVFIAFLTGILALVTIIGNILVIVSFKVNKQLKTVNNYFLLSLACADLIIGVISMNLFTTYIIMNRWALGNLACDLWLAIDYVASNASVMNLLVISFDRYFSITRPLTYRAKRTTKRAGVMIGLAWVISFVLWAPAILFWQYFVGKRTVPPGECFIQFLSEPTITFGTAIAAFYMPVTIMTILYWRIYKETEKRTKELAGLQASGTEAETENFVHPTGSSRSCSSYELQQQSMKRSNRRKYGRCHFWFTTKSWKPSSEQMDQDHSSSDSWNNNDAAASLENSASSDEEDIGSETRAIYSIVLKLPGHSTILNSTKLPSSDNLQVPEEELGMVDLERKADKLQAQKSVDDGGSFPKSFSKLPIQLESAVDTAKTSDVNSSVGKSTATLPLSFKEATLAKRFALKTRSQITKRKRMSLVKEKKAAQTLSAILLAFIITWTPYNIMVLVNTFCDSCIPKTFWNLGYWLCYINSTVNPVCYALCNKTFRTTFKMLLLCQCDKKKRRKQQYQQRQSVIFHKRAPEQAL", "assay": "Inhibition of muscarinic M3 receptor (unknown origin) at 10 uM relative to control"}, "Relaxin-3 receptor 1": {"target": "T1, Relaxin-3 receptor 1 (Homo sapiens, UniProt Q9NSD7)", "T1 sequence (Q9NSD7 whole entry)": "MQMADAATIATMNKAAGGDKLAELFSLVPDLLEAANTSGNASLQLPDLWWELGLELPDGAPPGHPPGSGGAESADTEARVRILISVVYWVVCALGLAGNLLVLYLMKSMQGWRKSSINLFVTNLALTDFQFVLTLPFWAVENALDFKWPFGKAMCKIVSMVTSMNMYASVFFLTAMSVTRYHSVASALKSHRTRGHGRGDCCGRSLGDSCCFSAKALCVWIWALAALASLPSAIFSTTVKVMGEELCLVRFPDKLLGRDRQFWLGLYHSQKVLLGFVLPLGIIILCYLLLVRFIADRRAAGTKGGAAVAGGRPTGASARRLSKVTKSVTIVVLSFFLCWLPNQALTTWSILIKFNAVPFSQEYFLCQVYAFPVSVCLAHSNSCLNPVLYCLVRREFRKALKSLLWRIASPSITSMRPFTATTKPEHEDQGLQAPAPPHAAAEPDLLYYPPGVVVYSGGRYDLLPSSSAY", "assay": "Antagonist activity at human RXFP3 expressed in CHO-K1 cells assessed as [35S]GTPgammaS binding incubated for 1 hr by [35S]GTP-gammaS binding assay", "assay_type": "functional, cell-based"}, "[2]": {"target": "Mu-type opioid receptor (Homo sapiens) (UniProt P35372)", "sequence (P35372 whole entry)": "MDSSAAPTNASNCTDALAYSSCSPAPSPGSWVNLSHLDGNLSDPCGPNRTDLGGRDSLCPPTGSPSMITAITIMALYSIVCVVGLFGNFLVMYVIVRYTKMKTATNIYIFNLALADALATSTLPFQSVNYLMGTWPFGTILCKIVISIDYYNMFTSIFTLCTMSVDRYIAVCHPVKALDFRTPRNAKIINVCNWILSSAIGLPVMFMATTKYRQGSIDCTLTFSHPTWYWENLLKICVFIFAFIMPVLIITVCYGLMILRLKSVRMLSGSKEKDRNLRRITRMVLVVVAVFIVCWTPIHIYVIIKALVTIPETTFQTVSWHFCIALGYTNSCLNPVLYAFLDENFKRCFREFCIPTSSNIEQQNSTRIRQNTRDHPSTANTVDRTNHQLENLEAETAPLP", "assay": "Inhibition of opioid u receptor (unknown origin) at 10 uM relative to control"}, "[3]": {"target": "Histamine H3 receptor (Homo sapiens) (UniProt Q9Y5N1)", "sequence (Q9Y5N1 whole entry)": "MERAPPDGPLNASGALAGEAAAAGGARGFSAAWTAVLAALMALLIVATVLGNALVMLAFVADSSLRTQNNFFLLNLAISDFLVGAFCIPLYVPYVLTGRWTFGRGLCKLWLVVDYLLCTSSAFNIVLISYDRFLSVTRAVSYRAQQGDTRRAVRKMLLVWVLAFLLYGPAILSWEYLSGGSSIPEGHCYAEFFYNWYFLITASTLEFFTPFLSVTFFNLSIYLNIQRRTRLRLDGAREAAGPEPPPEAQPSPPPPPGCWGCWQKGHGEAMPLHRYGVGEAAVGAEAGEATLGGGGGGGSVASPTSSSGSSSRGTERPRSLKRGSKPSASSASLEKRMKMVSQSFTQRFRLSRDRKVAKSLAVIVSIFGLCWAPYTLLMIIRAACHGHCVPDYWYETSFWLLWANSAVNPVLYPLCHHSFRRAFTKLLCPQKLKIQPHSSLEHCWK", "assay": "Inhibition of histamine H3 receptor (unknown origin) at 10 uM relative to control"}, "[4]": {"assay": "AUCinfinity in Wistar rat brain at 10 mg/kg, ip measured upto 8 hrs post dose by LC-MS/MS analysis", "assay_type": "ADME, organism-based", "design": "dose 10 mg/kg, time < 8 hrs, route ip"}, "[5]": {"target": "5-hydroxytryptamine receptor 1D (Homo sapiens) (UniProt P28221)", "assay": "Inhibition of serotonin 5-HT1D receptor (unknown origin) at 10 uM relative to control"}, "[6]": {"assay": "Ratio of AUC in brain to plasma or Wistar rat at 10 mg/kg, ip measured upto 8 hrs post dose by LC-MS/MS analysis", "assay_type": "ADME, organism-based"}, "[7]": {"target": "Sigma non-opioid intracellular receptor 1 (Homo sapiens) (UniProt Q99720)", "sequence (Q99720 whole entry)": "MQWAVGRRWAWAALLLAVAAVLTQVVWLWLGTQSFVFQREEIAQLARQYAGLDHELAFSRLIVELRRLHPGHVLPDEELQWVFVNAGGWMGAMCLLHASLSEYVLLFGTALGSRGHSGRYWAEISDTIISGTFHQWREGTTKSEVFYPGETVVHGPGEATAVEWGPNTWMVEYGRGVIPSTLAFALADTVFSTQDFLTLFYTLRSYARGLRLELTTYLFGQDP", "assay": "Inhibition of sigma1 receptor (unknown origin) at 10 uM relative to control"}, "[8]": {"target": "Kappa-type opioid receptor (Homo sapiens) (UniProt P41145)", "assay": "Inhibition of opioid kappa receptor (unknown origin) at 10 uM relative to control"}, "[9]": {"target": "5-hydroxytryptamine receptor 1B (Homo sapiens) (UniProt P28222)", "sequence (P28222 whole entry)": "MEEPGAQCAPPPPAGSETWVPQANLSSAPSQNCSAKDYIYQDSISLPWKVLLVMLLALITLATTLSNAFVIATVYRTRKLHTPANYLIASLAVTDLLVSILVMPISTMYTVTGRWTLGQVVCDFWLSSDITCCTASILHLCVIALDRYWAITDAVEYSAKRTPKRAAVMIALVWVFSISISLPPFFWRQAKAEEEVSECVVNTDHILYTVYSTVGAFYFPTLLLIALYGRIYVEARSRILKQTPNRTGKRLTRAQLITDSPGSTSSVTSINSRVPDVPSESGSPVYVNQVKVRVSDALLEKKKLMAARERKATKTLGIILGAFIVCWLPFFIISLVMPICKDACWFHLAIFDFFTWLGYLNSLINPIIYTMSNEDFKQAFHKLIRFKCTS", "assay": "Inhibition of serotonin 5-HT1B receptor (unknown origin) at 10 uM relative to control"}, "[10]": {"assay": "Half life in Wistar rat brain at 10 mg/kg, ip measured upto 8 hrs post dose by LC-MS/MS analysis", "assay_type": "ADME, organism-based", "conditions": "in vivo"}, "[11]": {"target": "Beta-2 adrenergic receptor (Homo sapiens) (UniProt P07550)", "assay": "Inhibition of adrenergic beta-2 receptor (unknown origin) at 10 uM relative to control"}, "[12]": {"target": "5-hydroxytryptamine receptor 1E (Homo sapiens) (UniProt P28566)", "sequence (P28566 whole entry)": "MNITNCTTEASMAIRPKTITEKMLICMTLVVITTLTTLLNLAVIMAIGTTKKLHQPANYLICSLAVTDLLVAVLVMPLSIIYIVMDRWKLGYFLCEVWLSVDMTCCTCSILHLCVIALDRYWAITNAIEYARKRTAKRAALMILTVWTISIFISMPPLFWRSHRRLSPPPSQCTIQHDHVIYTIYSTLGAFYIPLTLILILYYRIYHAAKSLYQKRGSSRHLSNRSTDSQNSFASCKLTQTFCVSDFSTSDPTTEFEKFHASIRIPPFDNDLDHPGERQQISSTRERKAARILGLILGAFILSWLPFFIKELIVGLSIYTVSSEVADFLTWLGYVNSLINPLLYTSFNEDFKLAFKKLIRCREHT", "assay": "Inhibition of serotonin 5-HT1E receptor (unknown origin) at 10 uM relative to control"}, "[13]": {"target": "Alpha-1D adrenergic receptor (Homo sapiens) (UniProt P25100)", "sequence (P25100 whole entry)": "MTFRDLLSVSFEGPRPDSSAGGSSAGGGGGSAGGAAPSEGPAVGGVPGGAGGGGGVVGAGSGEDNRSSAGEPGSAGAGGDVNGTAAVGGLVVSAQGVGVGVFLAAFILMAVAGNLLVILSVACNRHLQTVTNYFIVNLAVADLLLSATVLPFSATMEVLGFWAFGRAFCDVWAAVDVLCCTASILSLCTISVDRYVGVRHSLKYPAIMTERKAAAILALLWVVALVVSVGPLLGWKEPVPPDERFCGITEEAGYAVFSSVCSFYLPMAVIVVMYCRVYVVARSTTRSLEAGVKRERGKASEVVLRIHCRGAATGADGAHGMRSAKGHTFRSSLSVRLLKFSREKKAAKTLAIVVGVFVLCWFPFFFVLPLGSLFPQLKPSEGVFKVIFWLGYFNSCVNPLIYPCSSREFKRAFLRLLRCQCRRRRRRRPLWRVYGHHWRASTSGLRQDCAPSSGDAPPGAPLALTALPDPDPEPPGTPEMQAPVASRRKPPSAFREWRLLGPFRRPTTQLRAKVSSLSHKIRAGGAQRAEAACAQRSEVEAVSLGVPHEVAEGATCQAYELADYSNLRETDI", "assay": "Inhibition of adrenergic alpha-1D receptor (unknown origin) at 10 uM relative to control"}, "[14]": {"target": "Relaxin-3 receptor 1 (Homo sapiens) (UniProt Q9NSD7)", "assay": "Negative allosteric modulator activity at human RXFP3 expressed in CHO-K1 cells assessed as [35S]GTPgammaS binding at 10 to 30 uM incubated for 1 hr by [35S]GTP-gammaS binding assay", "assay_type": "functional, cell-based", "conditions": "filed as negative allosteric modulator, dose 10-30 µM"}, "[15]": {"target": "Sodium-dependent noradrenaline transporter (Homo sapiens) (UniProt P23975)", "assay": "Inhibition of NET receptor (unknown origin) at 10 uM relative to control"}, "[16]": {"target": "Muscarinic acetylcholine receptor M2 (Homo sapiens) (UniProt P08172)", "assay": "Inhibition of muscarinic M2 receptor (unknown origin) at 10 uM relative to control"}, "[17]": {"assay": "Kinetic aqueous solubility of the compound in PBS at pH 7.4 measured after 2 hrs by LC/MS-MS method", "assay_type": "physicochemical", "conditions": "buffer, pH 7.4, 2 h"}, "[18]": {"target": "Alpha-2A adrenergic receptor (Homo sapiens) (UniProt P08913)", "sequence (P08913 whole entry)": "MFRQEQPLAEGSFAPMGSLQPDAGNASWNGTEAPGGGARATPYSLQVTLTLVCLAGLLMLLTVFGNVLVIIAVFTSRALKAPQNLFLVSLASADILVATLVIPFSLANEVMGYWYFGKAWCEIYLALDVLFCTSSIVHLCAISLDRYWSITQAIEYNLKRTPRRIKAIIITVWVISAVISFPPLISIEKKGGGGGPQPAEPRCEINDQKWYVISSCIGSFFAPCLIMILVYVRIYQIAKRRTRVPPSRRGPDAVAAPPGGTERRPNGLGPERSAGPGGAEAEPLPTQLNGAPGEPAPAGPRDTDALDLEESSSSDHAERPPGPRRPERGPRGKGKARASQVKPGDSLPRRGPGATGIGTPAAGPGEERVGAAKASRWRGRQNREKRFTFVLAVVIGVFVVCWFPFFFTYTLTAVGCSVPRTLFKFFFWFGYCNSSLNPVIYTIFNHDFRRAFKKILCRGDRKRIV", "assay": "Inhibition of adrenergic alpha-2A receptor (unknown origin) at 10 uM relative to control"}, "[19]": {"assay": "Cmax in Wistar rat plasma at 10 mg/kg, ip measured upto 8 hrs post dose by LC-MS/MS analysis", "assay_type": "ADME, organism-based", "design": "time < 8 hrs, dose 10 mg/kg, route ip", "conditions": "in vivo"}, "[20]": {"assay": "Cmax in Wistar rat brain at 10 mg/kg, ip measured upto 8 hrs post dose by LC-MS/MS analysis", "assay_type": "ADME, organism-based", "design": "time < 8 hrs, dose 10 mg/kg, route ip"}, "[21]": {"target": "D(4) dopamine receptor (Homo sapiens) (UniProt P21917)", "sequence (P21917 whole entry)": "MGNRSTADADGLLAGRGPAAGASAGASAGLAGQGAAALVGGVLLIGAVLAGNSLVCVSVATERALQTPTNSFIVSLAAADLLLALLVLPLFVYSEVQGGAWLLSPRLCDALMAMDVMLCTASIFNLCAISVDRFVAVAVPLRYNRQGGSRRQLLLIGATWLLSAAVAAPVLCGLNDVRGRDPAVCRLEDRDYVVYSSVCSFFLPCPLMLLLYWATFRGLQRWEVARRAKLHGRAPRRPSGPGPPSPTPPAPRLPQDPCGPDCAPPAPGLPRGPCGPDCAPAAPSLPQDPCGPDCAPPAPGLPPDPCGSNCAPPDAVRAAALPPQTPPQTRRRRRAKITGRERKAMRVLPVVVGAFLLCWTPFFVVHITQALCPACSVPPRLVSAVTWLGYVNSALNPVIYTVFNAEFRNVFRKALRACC", "assay": "Inhibition of dopamine D4 receptor (unknown origin) at 10 uM relative to control"}, "[22]": {"assay": "Apparent permeability of the compound across apical to basolateral side in MDCK-MDRI cells measured upto 90 min by LC-MS/MS analysis", "assay_type": "ADME, cell-based, Canis lupus familiaris", "conditions": "dog, mdck-mdr1, 1.5 h"}, "[23]": {"target": "Sigma intracellular receptor 2 (Homo sapiens, UniProt Q5BJF2)", "sequence (Q5BJF2 whole entry)": "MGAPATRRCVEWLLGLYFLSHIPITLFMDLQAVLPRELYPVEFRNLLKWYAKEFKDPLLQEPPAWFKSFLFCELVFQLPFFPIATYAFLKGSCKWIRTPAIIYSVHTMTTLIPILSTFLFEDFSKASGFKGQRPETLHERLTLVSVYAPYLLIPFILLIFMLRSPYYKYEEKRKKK", "assay": "Inhibition of sigma-2 receptor (unknown origin) at 10 uM relative to control"}, "[24]": {"target": "Alpha-1A adrenergic receptor (Homo sapiens) (UniProt P35348)", "assay": "Inhibition of adrenergic alpha-1A receptor (unknown origin) at 10 uM relative to control"}, "[25]": {"target": "D(2) dopamine receptor (Homo sapiens) (UniProt P14416)", "assay": "Inhibition of dopamine D2 receptor (unknown origin) at 10 uM relative to control"}, "[26]": {"target": "Histamine H2 receptor (Homo sapiens) (UniProt P25021)", "assay": "Inhibition of histamine H2 receptor (unknown origin) at 10 uM relative to control"}, "[27]": {"target": "5-hydroxytryptamine receptor 7 (Homo sapiens) (UniProt P34969)", "sequence (P34969 whole entry)": "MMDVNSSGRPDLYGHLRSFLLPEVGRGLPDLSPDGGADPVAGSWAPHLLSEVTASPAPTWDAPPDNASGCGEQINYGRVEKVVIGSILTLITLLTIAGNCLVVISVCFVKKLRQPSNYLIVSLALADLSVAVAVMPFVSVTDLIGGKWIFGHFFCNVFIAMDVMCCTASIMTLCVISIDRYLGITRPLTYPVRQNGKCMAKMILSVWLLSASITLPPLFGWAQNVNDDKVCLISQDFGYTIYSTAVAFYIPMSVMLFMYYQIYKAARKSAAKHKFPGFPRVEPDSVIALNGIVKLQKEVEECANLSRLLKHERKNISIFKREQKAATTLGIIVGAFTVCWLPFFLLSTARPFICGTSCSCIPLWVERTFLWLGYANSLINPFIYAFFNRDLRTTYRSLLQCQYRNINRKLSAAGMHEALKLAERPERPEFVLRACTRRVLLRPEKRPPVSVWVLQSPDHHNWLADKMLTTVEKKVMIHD", "assay": "Inhibition of serotonin 5-HT7A receptor (unknown origin) at 10 uM relative to control"}, "[28]": {"target": "Delta-type opioid receptor (Homo sapiens) (UniProt P41143)", "sequence (P41143 whole entry)": "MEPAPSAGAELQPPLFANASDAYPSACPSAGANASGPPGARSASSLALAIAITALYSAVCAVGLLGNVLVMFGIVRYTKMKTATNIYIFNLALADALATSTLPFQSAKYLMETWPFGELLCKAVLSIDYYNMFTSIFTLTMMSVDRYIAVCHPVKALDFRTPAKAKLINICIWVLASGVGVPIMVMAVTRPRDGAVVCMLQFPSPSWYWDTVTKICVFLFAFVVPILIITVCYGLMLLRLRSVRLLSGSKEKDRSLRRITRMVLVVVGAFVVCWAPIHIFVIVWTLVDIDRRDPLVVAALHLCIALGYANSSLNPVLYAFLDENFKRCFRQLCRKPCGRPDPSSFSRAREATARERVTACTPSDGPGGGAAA", "assay": "Inhibition of opioid delta receptor (unknown origin) at 10 uM relative to control"}, "[29]": {"assay": "Plasma protein binding in Wister rat at 1 uM measured after 6 hrs by LC-MS/MS analysis", "assay_type": "ADME, cell-free"}}, "note": "Activity calls are given as the source filed them. The calls are words filed in the database; no cut-off is given here.", "data": [{"smiles": "O=C(Nc1ccc(-c2nc(-c3ccc(Cl)cc3)no2)cc1)C1CC(=O)N(Cc2ccco2)C1", "note": "(stereo not given)", "values": [{"measurement": "inhibition", "setting": "[1]", "result": "< 50", "unit": "%"}, {"measurement": "IC50", "setting": "Relaxin-3 receptor 1", "result": 4.52, "unit": "µM"}, {"measurement": "inhibition", "setting": "[2]", "result": "< 50", "unit": "%"}, {"measurement": "inhibition", "setting": "[3]", "result": "< 50", "unit": "%"}, {"measurement": "AUC(0-inf)", "setting": "[4]", "result": 12.5, "unit": "ng·h/mL"}, {"measurement": "inhibition", "setting": "[5]", "result": "< 50", "unit": "%"}, {"measurement": "Ratio", "setting": "[6]", "result": 2.3}, {"measurement": "inhibition", "setting": "[7]", "result": "< 50", "unit": "%"}, {"measurement": "inhibition", "setting": "[8]", "result": "< 50", "unit": "%"}, {"measurement": "inhibition", "setting": "[9]", "result": "< 50", "unit": "%"}, {"measurement": "t1/2", "setting": "[10]", "result": 4.9, "unit": "h"}, {"measurement": "inhibition", "setting": "[11]", "result": "< 50", "unit": "%"}, {"measurement": "inhibition", "setting": "[12]", "result": "< 50", "unit": "%"}, {"measurement": "inhibition", "setting": "[13]", "result": "< 50", "unit": "%"}, {"measurement": "Activity", "setting": "[14]", "result": "Active"}, {"measurement": "inhibition", "setting": "[15]", "result": "< 50", "unit": "%"}, {"measurement": "inhibition", "setting": "[16]", "result": 51, "unit": "%"}, {"measurement": "Kinetic_solubility", "setting": "[17]", "result": "< 1", "unit": "µM"}, {"measurement": "inhibition", "setting": "[18]", "result": "< 50", "unit": "%"}, {"measurement": "Cmax", "setting": "[19]", "result": 1401, "unit": "ng/mL"}, {"measurement": "Cmax", "setting": "[20]", "result": 1550, "unit": "ng/mL"}, {"measurement": "inhibition", "setting": "[21]", "result": "< 50", "unit": "%"}, {"measurement": "Papp", "setting": "[22]", "result": "1.3 10^-6 cm/s"}, {"measurement": "inhibition", "setting": "[23]", "result": 95, "unit": "%"}, {"measurement": "inhibition", "setting": "[24]", "result": "< 50", "unit": "%"}, {"measurement": "inhibition", "setting": "[25]", "result": "< 50", "unit": "%"}, {"measurement": "inhibition", "setting": "[26]", "result": "< 50", "unit": "%"}, {"measurement": "inhibition", "setting": "[27]", "result": "< 50", "unit": "%"}, {"measurement": "inhibition", "setting": "[28]", "result": "< 50", "unit": "%"}, {"measurement": "PPB", "setting": "[29]", "result": 99.8, "unit": "%"}]}]}
